{"source": "paper PMC12383022", "about": "“Discovery of a Novel Antimicrobial Peptide from Paenibacillus sp. Na14 with Potent Activity Against Gram-Negative Bacteria and Genomic Insights into Its Biosynthetic Pathway” (Antibiotics, 2025)", "key": {"E. coli TISTR 887 [1]": {"test_system": "E. coli TISTR 887", "type": "cell-based, Escherichia coli", "conditions": "broth microdilution, 37 °C, 24 h, triplicate", "method": "(§1) A bacterial suspension was prepared by adjusting its turbidity at OD 625 nm to 0.1 and subsequently made a 20-fold dilution using Cation-Adjusted Mueller–Hinton broth (CAHMB) as a diluent. […] The diluted cell suspension (10 µL) was added to each well, and the plates were incubated at 37 °C for 24 h. The CAMHB alone was used as a negative control, while CAMHB containing colistin or vancomycin served as a positive control."}, "S. aureus TISTR 517 [2]": {"test_system": "S. aureus TISTR 517", "experiment": "Agar well diffusion assay", "type": "cell-based, Staphylococcus aureus", "text": "(§2) To identify potential active bacterial isolates, the cross-streak and agar well diffusion method was employed against S. aureus TISTR 517 and E. coli TISTR 887, following the protocol described in a previous study. The production kinetics of antibacterial substances by the active bacterial isolates were investigated. Single colonies were suspended in 0.9% NaCl solution, and the turbidity was adjusted to an optical density (OD) of 0.35 at 625 nm. Two milliliters of the cell suspension were inoculated into 98 mL of LB broth and incubated at 37 °C with shaking at 150 rpm for seven days. At each time interval, bacterial growth was evaluated by measuring the OD at 625 nm using a UV-Vis spectrophotometer (JASCO Corporation, Tokyo, Japan). The cell-free supernatant (CFS) was obtained by centrifuging the culture at 10,000× g at 4 °C for 15 min. Subsequently, 100 µL of the supernatant was loaded into wells on MH agar plates precultured with tested pathogens. Colistin and vancomycin served as positive controls in agar well diffusion assay."}, "MRSA Strain 2468 [3]": {"test_system": "MRSA Strain 2468", "experiment": "Agar well diffusion assay", "type": "cell-based, Staphylococcus aureus", "text": "as §2"}, "K. pneumoniae TISTR 1383 [4]": {"test_system": "K. pneumoniae TISTR 1383", "experiment": "Agar well diffusion assay", "type": "cell-based, Klebsiella pneumoniae", "text": "as §2"}, "P. aeruginosa TISTR 357 [5]": {"test_system": "P. aeruginosa TISTR 357", "type": "cell-based, Pseudomonas aeruginosa", "conditions": "broth microdilution, 37 °C, 24 h, triplicate", "method": "as §1"}, "P. aeruginosa TISTR 357 [6]": {"test_system": "P. aeruginosa TISTR 357", "experiment": "Agar well diffusion assay", "type": "cell-based, Pseudomonas aeruginosa", "text": "as §2"}, "K. pneumoniae TISTR 1383 [7]": {"test_system": "K. pneumoniae TISTR 1383", "type": "cell-based, Klebsiella pneumoniae", "conditions": "broth microdilution, 37 °C, 24 h, triplicate", "method": "as §1"}, "E. coli TISTR 887 [8]": {"test_system": "E. coli TISTR 887", "experiment": "Agar well diffusion assay", "type": "cell-based, Escherichia coli", "text": "as §2"}, "S. aureus TISTR 517 [9]": {"test_system": "S. aureus TISTR 517", "experiment": "microbe, parasite or virus in culture", "type": "cell-based, Staphylococcus aureus", "conditions": "Staphylococcus aureus, TISTR517, 24 h, read-out: MBC, S. aureus TISTR 517", "method": "as §1"}, "MRSA Strain 2468 [10]": {"test_system": "MRSA Strain 2468", "experiment": "microbe, parasite or virus in culture", "type": "cell-based, Staphylococcus aureus", "conditions": "Staphylococcus aureus, MRSA, 24 h", "method": "as §1"}, "[11]": {"conditions": "agar well diffusion, MH agar, CFS obtained at 24 h of cultivation, 100 µL per well, colistin 25 μg, vancomycin 30 μg, mean ± SD, n = 3"}}}
{"molecule": "Colistin [reference compound]", "values": [{"measurement": "MIC, E. coli TISTR 887", "setting": "E. coli TISTR 887 [1]; CAMHB", "value": 1, "unit": "µg/mL"}, {"measurement": "MBC, E. coli TISTR 887", "setting": "E. coli TISTR 887 [1]; then plated on MH agar", "value": 1, "unit": "µg/mL"}, {"measurement": "Zone of Inhibition, S. aureus TISTR 517", "setting": "S. aureus TISTR 517 [2]; [11]", "value": "0.00 ± 0.00", "unit": "mm"}, {"measurement": "Zone of Inhibition, MRSA Strain 2468", "setting": "MRSA Strain 2468 [3]; [11]", "value": "0.00 ± 0.00", "unit": "mm"}, {"measurement": "Zone of Inhibition, K. pneumoniae TISTR 1383", "setting": "K. pneumoniae TISTR 1383 [4]; [11]", "value": "26.67 ± 0.22", "unit": "mm"}, {"measurement": "MIC, P. aeruginosa TISTR 357", "setting": "P. aeruginosa TISTR 357 [5]; CAMHB", "value": 2, "unit": "µg/mL"}, {"measurement": "MBC, P. aeruginosa TISTR 357", "setting": "P. aeruginosa TISTR 357 [5]; then plated on MH agar", "value": 2, "unit": "µg/mL"}, {"measurement": "Zone of Inhibition, P. aeruginosa TISTR 357", "setting": "P. aeruginosa TISTR 357 [6]; [11]", "value": "29.41 ± 0.65", "unit": "mm"}, {"measurement": "MIC, K. pneumoniae TISTR 1383", "setting": "K. pneumoniae TISTR 1383 [7]; CAMHB", "value": 1, "unit": "µg/mL"}, {"measurement": "MBC, K. pneumoniae TISTR 1383", "setting": "K. pneumoniae TISTR 1383 [7]; then plated on MH agar", "value": 1, "unit": "µg/mL"}, {"measurement": "Zone of Inhibition, E. coli TISTR 887", "setting": "E. coli TISTR 887 [8]; [11]", "value": "26.52 ± 0.43", "unit": "mm"}]}
{"molecule": "CN[C@H](CC(C)C)C(=O)N[C@H]1C(=O)N[C@@H](CC(N)=O)C(=O)N[C@H]2C(=O)N[C@H]3C(=O)N[C@H](C(=O)N[C@H](C(=O)O)c4cc(O)cc(O)c4-c4cc3ccc4O)[C@H](O)c3ccc(c(Cl)c3)Oc3cc2cc(c3O[C@@H]2O[C@H](CO)[C@@H](O)[C@H](O)[C@H]2O[C@H]2C[C@](C)(N)[C@H](O)[C@H](C)O2)Oc2ccc(cc2Cl)[C@H]1O", "note": "[Vancomycin]", "values": [{"measurement": "MBC", "setting": "S. aureus TISTR 517 [9]", "value": 2, "unit": "µg/mL"}, {"measurement": "MBC", "setting": "MRSA Strain 2468 [10]; read-out: MBC, MRSA strain 2468", "value": 4, "unit": "µg/mL"}, {"measurement": "MIC", "setting": "MRSA Strain 2468 [10]; read-out: MIC, MRSA strain 2468", "value": 4, "unit": "µg/mL"}, {"measurement": "zone of inhibition at 30 µg/disc", "setting": "S. aureus TISTR 517 [2]; Staphylococcus aureus, TISTR517, 24 h, read-out: Zone of Inhibition, S. aureus TISTR 517", "value": "28.5 ± 0.22", "unit": "mm"}, {"measurement": "zone of inhibition at 30 µg/disc", "setting": "MRSA Strain 2468 [3]; Staphylococcus aureus, MRSA, 24 h, read-out: Zone of Inhibition, MRSA Strain 2468", "value": "29 ± 0.43", "unit": "mm"}, {"measurement": "zone of inhibition at 30 µg/disc", "setting": "K. pneumoniae TISTR 1383 [4]; Klebsiella pneumoniae, TISTR1383, 24 h, read-out: Zone of Inhibition, K. pneumoniae TISTR 1383", "value": 0, "unit": "mm"}, {"measurement": "zone of inhibition at 30 µg/disc", "setting": "P. aeruginosa TISTR 357 [6]; Pseudomonas aeruginosa, TISTR357, 24 h, read-out: Zone of Inhibition, P. aeruginosa TISTR 357", "value": 0, "unit": "mm"}, {"measurement": "zone of inhibition at 30 µg/disc", "setting": "E. coli TISTR 887 [8]; Escherichia coli, TISTR887, 24 h, read-out: Zone of Inhibition, E. coli TISTR 887", "value": 0, "unit": "mm"}]}
